Results published in PMC9610943, “Truncated Pleurocidin Derivative with High Pepsin Hydrolysis Resistance to Combat Multidrug-Resistant Pathogens” (Pharmaceutics, 2022).
Where no end group is shown, it is not given here.

Assays:
[1] = system: P. cibarius HNCF44W (blaNDM-1+ tet(X6)); test: organism not typed; assay type: cell-based
Experimental: (§1) S. aureus ATCC 29213, E. coli ATCC 25922, S. enteritidis ATCC 13076 and A. baumannii ATCC 19609 were obtained from the American Type Culture Collection (ATCC). The remaining strains used in the experiment were all preserved strains in our laboratory. All strains were cultured in nutrient broth overnight to the logarithmic phase at 37 °C prior to each experiment.
(§2) The MICs of all drugs were determined by micro-broth dilution method according to CLSI 2018 guidelines. Briefly, a single colony of the bacterial strain was transferred to 1 mL of Mueller Hilton broth (MHB) and overnight at 37 °C and then 10 μL were cultured in a new 1 mL medium for 4 to 6 h, and then the bacterial culture at the logarithmic phase was diluted to 1 × 10^6 CFUs/mL. The assay was performed by adding 100 μL of each peptide solution at various concentrations (0.25 to 128 μg/mL) and 100 μL of diluted bacterial culture to different wells of a 96-well microtiter plate (Corning, NY, USA). After incubation at 37 °C for 16 to 18 h and then read its MIC value. MIC value is defined as the lowest drug concentration without visible bacteria.

E. coli G92 (mcr-1) = test: microbe, parasite or virus in culture; assay type: cell-based; conditions: G92 (mcr-1)
Experimental: as §1, §2

P. aeruginosa PA14 = test: microbe, parasite or virus in culture; assay type: cell-based; conditions: PA14
Experimental: as §1, §2

E. coli G6 (blaNDM-5) = test: microbe, parasite or virus in culture; assay type: cell-based; conditions: G6 (blaNDM-5)
Experimental: as §1, §2

[2] = system: E. coli B2 (blaNDM-5 + mcr-1); test: microbe, parasite or virus in culture; assay type: cell-based; conditions: B2 (blaNDM-5 + mcr-1)
Experimental: as §1, §2

A. baumannii ATCC 19609 = test: microbe, parasite or virus in culture; assay type: cell-based; conditions: ATCC 19609
Experimental: as §1, §2

E. coli ATCC 25922 = test: microbe, parasite or virus in culture; assay type: cell-based; conditions: ATCC 25922
Experimental: as §1, §2

[3] = system: P. aeruginosa (VIM + tmexCD1-torJ1); test: microbe, parasite or virus in culture; assay type: cell-based; conditions: VIM + tmexCD1-torJ1
Experimental: as §1, §2

E. coli C3 (blaNDM-1) = test: microbe, parasite or virus in culture; assay type: cell-based; conditions: C3 (blaNDM-1)
Experimental: as §1, §2

E. coli 1F28 (tet(X4)) = test: microbe, parasite or virus in culture; assay type: cell-based; conditions: 1F28 (tet(X4))
Experimental: as §1, §2

[4] = system: S. enteritidis ATCC 13076; test: microbe, parasite or virus in culture; assay type: cell-based; conditions: ATCC 13076
Experimental: as §1, §2

S. aureus G16 (RIF^R) = test: microbe, parasite or virus in culture; assay type: cell-based; conditions: S. aureus G16 (RIF^R); micro-broth dilution CLSI 2018, MHB, 37 °C, 16 to 18 h
Experimental: as §1, §2

E. coli CP131 (mcr-3) = test: microbe, parasite or virus in culture; assay type: cell-based; conditions: CP131 (mcr-3)
Experimental: as §1, §2

[5] = system: S. aureus 215 (cfr + LZD^R); test: microbe, parasite or virus in culture; assay type: cell-based; conditions: S. aureus 215 (cfr + LZD^R); micro-broth dilution CLSI 2018, MHB, 37 °C, 16 to 18 h
Experimental: as §1, §2

[6] = system: E. faecalis A4 (VRE, VanA); test: microbe, parasite or virus in culture; assay type: cell-based; conditions: A4 (VRE, VanA)
Experimental: as §1, §2

S. aureus ATCC 29213 = test: microbe, parasite or virus in culture; assay type: cell-based; conditions: ATCC 29213
Experimental: as §1, §2

E. coli B3-1 (tet(X4)) = test: microbe, parasite or virus in culture; assay type: cell-based; conditions: B3-1 (tet(X4))
Experimental: as §1, §2

MRSA T144 [7] = assay type: cell-based, Staphylococcus aureus; conditions: for MIC after treatment at 121 °C / MIC in DMEM (10%) / MIC in Plasma (10%) / MIC in Serum (10%) / MIC in presence of Ca^2+ / MIC in presence of K^+ / MIC in presence of Mg^2+ / MIC in presence of Na^+ / MIC, Control: T144
Experimental: as §2
(§3) Then, the antibacterial activity of the peptides affected by different temperatures and pH were determined according to the determination steps of MICs test.
(§4) In MHB medium, Na^+, K^+, Mg^2+ and Ca^2+ with the final concentrations of 10 mM, fetal bovine serum, plasma or DMEM medium (Hyclone, Logan, UT, USA) with the final concentrations of 10% was added, and then MIC values were measured to evaluate the effects of different cations, serum and plasma on the antibacterial activity of peptides.
(§5) The peptide was incubated with protease (pepsin, trypsin and papain) (Solarbio, Beijing, China) with a final concentration of 1 mg/mL at 37 °C for 1 h, then the mixture of peptide and protease was heated at 100 °C for 30 min, then centrifuged at 13,000× g for 30 min, and the supernatant was taken for MIC determination.

E. coli B2 = assay type: cell-based; conditions: for MIC after treatment at 121 °C / MIC in DMEM (10%) / MIC in Plasma (10%) / MIC in Serum (10%) / MIC in presence of Ca^2+ / MIC in presence of K^+ / MIC in presence of Mg^2+ / MIC in presence of Na^+ / MIC, Control: B2; for MIC after Papain treatment / MIC after Pepsin treatment / MIC after Trypsin treatment / MIC after treatment at 40 °C / MIC after treatment at 60 °C / MIC after treatment at 80 °C / MIC after treatment at 100 °C / MIC after treatment at pH 2 / MIC after treatment at pH 4 / MIC after treatment at pH 6 / MIC after treatment at pH 8 / MIC after treatment at pH 10 / MIC after treatment at pH 12: B2, 1 h
Experimental: as §2, §3, §4, §5

MRSA 1530 = test: microbe, parasite or virus in culture; assay type: cell-based, Staphylococcus aureus; conditions: 1530
Experimental: as §1, §2

MRSA T144 [8] = test: microbe, parasite or virus in culture; assay type: cell-based, Staphylococcus aureus; conditions: T144
Experimental: as §1, §2

## GWKSFFKKWKHVWK [GK-2]
[1]
  MIC: 8 µg/mL
E. coli G92 (mcr-1)
  MIC: 2 µg/mL
P. aeruginosa PA14
  MIC: 16 µg/mL
E. coli G6 (blaNDM-5)
  MIC: 2 µg/mL
[2]
  MIC: 2 µg/mL
A. baumannii ATCC 19609
  MIC: 8 µg/mL
E. coli ATCC 25922
  MIC: 8 µg/mL
[3]
  MIC: 16 µg/mL
E. coli C3 (blaNDM-1)
  MIC: 2 µg/mL
E. coli 1F28 (tet(X4))
  MIC: 16 µg/mL
[4]
  MIC: 4 µg/mL
S. aureus G16 (RIF^R)
  MIC: 8 µg/mL
E. coli CP131 (mcr-3)
  MIC: 2 µg/mL
[5]
  MIC: 4 µg/mL
[6]
  MIC: 16 µg/mL
S. aureus ATCC 29213
  MIC: 4 µg/mL
E. coli B3-1 (tet(X4))
  MIC: 4 µg/mL
MRSA T144 [7]
  MIC after treatment at 121 °C: 4 µg/mL
  MIC in DMEM (10%): 4 µg/mL
  MIC in Plasma (10%): 4 µg/mL
  MIC in Serum (10%): 8 µg/mL
  MIC in presence of Ca^2+: >128 µg/mL
  MIC in presence of K^+: 4 µg/mL
  MIC in presence of Mg^2+: 4 µg/mL
  MIC in presence of Na^+: 2 µg/mL
  MIC, Control: 8 µg/mL
MRSA T144 [7]; T144, 1 h
  MIC after Papain treatment: >128 µg/mL
  MIC after Pepsin treatment: 64 µg/mL
  MIC after Trypsin treatment: >128 µg/mL
  MIC after treatment at 40 °C: 2 µg/mL
  MIC after treatment at 60 °C: 4 µg/mL
  MIC after treatment at 80 °C: 2 µg/mL
  MIC after treatment at 100 °C: 4 µg/mL
  MIC after treatment at pH 2: 4 µg/mL
  MIC after treatment at pH 4: 4 µg/mL
  MIC after treatment at pH 6: 4 µg/mL
  MIC after treatment at pH 8: 4 µg/mL
  MIC after treatment at pH 10: 4 µg/mL
  MIC after treatment at pH 12: 4 µg/mL
E. coli B2
  MIC after treatment at 121 °C: 2 µg/mL
  MIC in DMEM (10%): 4 µg/mL
  MIC in Plasma (10%): 0.5 µg/mL
  MIC in Serum (10%): 4 µg/mL
  MIC in presence of Ca^2+: >128 µg/mL
  MIC in presence of K^+: 2 µg/mL
  MIC in presence of Mg^2+: 32 µg/mL
  MIC in presence of Na^+: 2 µg/mL
  MIC, Control: 2 µg/mL
  MIC after Papain treatment: >128 µg/mL
  MIC after Pepsin treatment: 128 µg/mL
  MIC after Trypsin treatment: >128 µg/mL
  MIC after treatment at 40 °C: 2 µg/mL
  MIC after treatment at 60 °C: 4 µg/mL
  MIC after treatment at 80 °C: 2 µg/mL
  MIC after treatment at 100 °C: 2 µg/mL
  MIC after treatment at pH 2: 2 µg/mL
  MIC after treatment at pH 4: 4 µg/mL
  MIC after treatment at pH 6: 2 µg/mL
  MIC after treatment at pH 8: 2 µg/mL
  MIC after treatment at pH 10: 2 µg/mL
  MIC after treatment at pH 12: 2 µg/mL
MRSA 1530
  MIC: 32 µg/mL
MRSA T144 [8]
  MIC: 8 µg/mL

## GWKKFFKKWKHVWK [GK-4]
[1]
  MIC: 4 µg/mL
E. coli G92 (mcr-1)
  MIC: 4 µg/mL
P. aeruginosa PA14
  MIC: 16 µg/mL
E. coli G6 (blaNDM-5)
  MIC: 4 µg/mL
[2]
  MIC: 2 µg/mL
A. baumannii ATCC 19609
  MIC: 4 µg/mL
E. coli ATCC 25922
  MIC: 8 µg/mL
[3]
  MIC: 16 µg/mL
E. coli C3 (blaNDM-1)
  MIC: 2 µg/mL
E. coli 1F28 (tet(X4))
  MIC: 16 µg/mL
[4]
  MIC: 4 µg/mL
S. aureus G16 (RIF^R)
  MIC: 8 µg/mL
E. coli CP131 (mcr-3)
  MIC: 2 µg/mL
[5]
  MIC: 8 µg/mL
[6]
  MIC: 16 µg/mL
S. aureus ATCC 29213
  MIC: 4 µg/mL
E. coli B3-1 (tet(X4))
  MIC: 4 µg/mL
MRSA T144 [7]
  MIC after treatment at 121 °C: 4 µg/mL
  MIC in DMEM (10%): 2 µg/mL
  MIC in Plasma (10%): 4 µg/mL
  MIC in Serum (10%): 8 µg/mL
  MIC in presence of Ca^2+: >128 µg/mL
  MIC in presence of K^+: 4 µg/mL
  MIC in presence of Mg^2+: 8 µg/mL
  MIC in presence of Na^+: 2 µg/mL
  MIC, Control: 4 µg/mL
MRSA T144 [7]; T144, 1 h
  MIC after Papain treatment: >128 µg/mL
  MIC after Trypsin treatment: >128 µg/mL
  MIC after treatment at 40 °C: 2 µg/mL
  MIC after treatment at 60 °C: 2 µg/mL
  MIC after treatment at 80 °C: 2 µg/mL
  MIC after treatment at 100 °C: 4 µg/mL
  MIC after treatment at pH 2: 4 µg/mL
  MIC after treatment at pH 4: 4 µg/mL
  MIC after treatment at pH 6: 4 µg/mL
  MIC after treatment at pH 8: 4 µg/mL
  MIC after treatment at pH 10: 4 µg/mL
  MIC after treatment at pH 12: 4 µg/mL
E. coli B2
  MIC after treatment at 121 °C: 2 µg/mL
  MIC in DMEM (10%): 4 µg/mL
  MIC in Plasma (10%): 2 µg/mL
  MIC in Serum (10%): 4 µg/mL
  MIC in presence of Ca^2+: >128 µg/mL
  MIC in presence of K^+: 2 µg/mL
  MIC in presence of Mg^2+: 32 µg/mL
  MIC in presence of Na^+: 2 µg/mL
  MIC, Control: 2 µg/mL
  MIC after Papain treatment: >128 µg/mL
  MIC after Pepsin treatment: 2 µg/mL
  MIC after Trypsin treatment: >128 µg/mL
  MIC after treatment at 40 °C: 2 µg/mL
  MIC after treatment at 60 °C: 2 µg/mL
  MIC after treatment at 80 °C: 2 µg/mL
  MIC after treatment at 100 °C: 2 µg/mL
  MIC after treatment at pH 2: 1 µg/mL
  MIC after treatment at pH 4: 1 µg/mL
  MIC after treatment at pH 6: 2 µg/mL
  MIC after treatment at pH 8: 1 µg/mL
  MIC after treatment at pH 10: 1 µg/mL
  MIC after treatment at pH 12: 2 µg/mL
MRSA 1530
  MIC: 16 µg/mL
MRSA T144 [8]
  MIC: 4 µg/mL
